Here are results for two compounds from patent publication US6663858B1, “In Vivo gene transfer using implanted retroviral producer cells” (The Regents of the University of California, priority 1991, dated 2003).

Converted amounts (≈) assume the structure as drawn. “And” between values parts separate entries of the source, which are not always exact repeats. Equal values may be shown once. “Also recorded” adds a separate entry of the source.

One test has as its system 9 L tumor cells. Description: Repeat tumor challenge in long-term survivors. The test is classed as in vivo, Fischer 344 rats. An excerpt:
Repeat Tumor Challenge. Four animals with long-term tumor regression were studied with repeat tumor challenges 90 days after the initial tumor implantation. Animals underwent repeated intracerebral injections of 2×10^5 9 L tumor cells into the left caudate nucleus and injections of 1×10^6 9 L tumor cells into the right flank. Five normal, naive rats received identical injections of 9 L tumor cells. Animals were sacrificed and perfused 17 days later to determine resulting tumor volumes.

Test [1] relates to 9 L brain tumors. To be noted: no producer cell injections; Barba et al. 1993; cited from earlier work.
In test [2] the test system is 9 L brain tumors. Description: Short-term (17 days) 9 L brain tumor volume after HSV-TK producer cell implantation and GCV. The test is classed as in vivo, Fischer 344 rats. The protocol:
(§1) Tumor Cell and Producer Cell Implantation. The 9 L cells were maintained in Dulbecco's modified Eagle's medium with 10% fetal bovine serum, penicillin G (100 units/ml), streptomycin sulfate (100 μg/ml). Brain tumors were established in adult female Fischer 344 rats which were housed and handled in accordance with National Institutes of Health guidelines.
(§2) In all studies tumors were implanted by an intracerebral injection of 2×10^5 tumor cells into the region of the right caudate nucleus (3 mm lateral, 1 mm anterior to bregma, 4 mm ventral) (Paxinos, G. & Watson, C. (1987) The Rat Brain in Stereotaxic Coordinates (University Press ***).
Animals in short-term studies underwent a second surgery 3 days after tumor implantation, at which time retroviral producer cells (either 2×10^5 in 4 μl or 2×10^6 in 8 μl, representing an equal, number (1×) or 10 times (10×) the number of injected tumor cells, respectively) were implanted into the established brain tumors and allowed to grow with brain tumor cells for 7 days. Ten days after tumor implantation, subsets of animals were given 0.2 ml intraperitoneal injections of GCV (Syntex, Palo Alto, Calif.) 50 mg/kg once a day for 7 or 14 days. Animals in the short-term experiments were sacrificed after 7 days of GCV administration (17 days after tumor implantation) and then perfused with 4% paraformaldehyde.
Brain Tumor Analysis. Short-term treatment response was determined by comparing individual brain tumor volumes measured by postmortem stereologic study in groups containing a minimum of five animals.
(§3) Long-term results were studied in 90-day survival studies with tumor volumes determined in long-term survivors. Stained brain sections were examined and tumor volumes were quantified by stereologic methods (Gundersen, H. J. G., Bagger, P. & Bendtsen, T. F. (1988) APMIS ***96, 857-881). Tumor volumes were compared by the Mann-Whitney U test. In long-term survival experiments (90 days), animals were observed daily and survival data were analyzed by Kaplan-Meier analysis with the Mantel-Cox statistic.

The test system of test [3] is 9 L brain tumors. The experiment in a line: Long-term (90-day) survival of rats with 9 L brain tumors after HSV-TK producer cells and GCV. The test is classed as in vivo, Fischer 344 rats. To be noted: for treated animals surviving 90 days: both long-term trials combined, HSV-TK producer cells plus GCV. The protocol: as §1, §2
Two trials of long-term (90-day) survival were performed. In the first, producer cells (2×10^5), equal to the initial number of tumor cells implanted) were grafted into 3-day-old brain tumors. GCV treatments were started in 12 animals 7 days later (tumor day 10) and continued for 7 days; 8 animals received no GCV. In the second trial, 2×10^5 or 2×10^6 producer cells in 50 μl (representing 1× or 10× the number of injected tumor cells, respectively) were grafted into 3-day-old established brain tumors of 10 animals per group. GCV treatments started 7 days later and were administered for 14 days.
as §3

Test [4] deals with C6 glial tumor cells infected with STK, NTK or μTK vector. Description: Survival of C6 glioma clones carrying HSV-TK vectors in increasing concentrations of acyclovir. It is filed as cell-based. To be noted: C6 clones infected with each vector (STK, NTK, μTK); acyclovir 0.1 to 100 μg/ml for 3 days. The protocol:
Murine retroviral vectors carrying the HSV-TK gene, the STK, NTK, and μTK vectors, were obtained from Dr. F. L. Moolten. The plasmid forms of the vectors were transfected into −2 cells (Mann et al., Cell 33:153-159 (1983)); selection with 1 mg/ml of the neomycin analog G418 permitted the isolation of clone producer lines that yielded viruses capable of transducing G418 resistance and HSV-TK activity. Virus titers were determined by the limiting dilution method and found to be greater than 50 pfu/cell. As expected with −2 cells, no replication-competent virus was detected.
The replicative defective viruses produced by −2 cells were used to infect C6 glial tumor cells. The cells to be infected were grown in DME plus 10% fetal bovine serum plus 4 μg/ml of polybrene and were grown to about 60-70% confluence in a T75 flask or about 2×10^6 cells/ml. The cells were infected with about 100 pfu/cell of virus. The infected cells were cultured for 24 hours with Dulbecco's Medium containing 10% fetal bovine serum and antibiotics; afterwards they were exposed to 1 mg of G418/ml to select for cells that expressed vector-derived genes.
Clones resulting from infection of C6 glial cells with each of the vectors were exposed to acyclovir at concentrations ranging from 0.1 to 100 μg/ml for 3 days. Each vector rendered the glial cells sensitive to acyclovir.

The test system of a further test is cells carrying HSV-TK. The experiment in a line: 3-day cytotoxicity assay, cells carrying HSV-TK. The settings on record: 72 h, read-out: inhibitory dose for 50% of the cells. It is filed as cell-based. The protocol:
(§4) Similar results were obtained in a 3-day cytotoxicity assay; the inhibitory dose of acyclovir for 50% of the cells lacking the HSV-TK gene was greater than […] for cells carrying HSV-TK.

The subject of test [5] is cells lacking the HSV-TK gene. Description: 3-day cytotoxicity assay, cells lacking the HSV-TK gene. To be noted: 72 h, read-out: inhibitory dose for 50% of the cells. It is filed as cell-based. The protocol: as §4
[6] abbreviates: HSV-TK producer cells plus GCV, 17-day-old tumors.

Take `Nc1nc2c(ncn2COC(CO)CO)c(=O)[nH]1` [GCV, 9-((2-hydroxy-1-(hydroxymethyl)ethoxy)methyl) guanine]: the “flank tumor nodules after repeat challenge” value in the test with 9 L tumor cells (1×10^6 9 L cells into right flank, 17 days, flank tumors in four of five naive rats) is recorded as “failed to detect any tumor nodules”. Also, the “tumor volume at the site of the secondary tumor cell implants (left hemisphere)” value with 9 L tumor cells (2×10^5 9 L cells, 17 days after repeat challenge, naive animals 129-169) is listed as less than 0.2 mm^3. The “tumor volume at the site of the initial tumor cell implantation in long-term survivors” value in the test on 9 L tumor cells (four long-term survivors of second trial, 17 days after repeat challenge) is on record as 0.6-2.0 mm^3. Further, in the test with 9 L tumor cells (repeat 9 L injections after HSV-TK producer cells and GCV, tumors grew in naive rats), the “growth of repeat tumor injections in rats surviving 90 days” value was “rejected repeat tumor injections; also recorded: absence of growth of injected tumor cells; also recorded: inhibition of growth of the injected tumor cells”. The “tumor regression in animals treated with GCV without producer cell injections” value with 9 L brain tumors [1] is recorded as “not seen”. The “tumor volume / tumor regression versus rats not treated with GCV” value with 9 L brain tumors [2] (HSV-TK producer cells (1:1 or 10:1) implanted day 3, GCV 50 mg/kg per day i.p. for 7 days, day 17) is listed as “Significant tumor regression; also recorded: significantly smaller”. In addition, in the test with 9 L brain tumors [2] (setting [6]), the “treated animals with focal regression of part of the tumor adjacent to unaffected tumor” value is “about 50%”. Also, in the test with 9 L brain tumors [2] (setting [6]), the “treated animals with unaffected tumors” value is “about 10%”. Further, the “animals alive after 90 days in each experimental group, second trial” value in the test on 9 L brain tumors [3] (1× or 10× producer cells, 10 animals per group, GCV for 14 days) was “two”. The “treated animals surviving 90 days, first trial” value in the test on 9 L brain tumors [3] (2×10^5 producer cells, GCV for 7 days from tumor day 10, none of 8 untreated survived longer than 25 days) is 3 of 12. Also, the “tumor volume in the third surviving treated animal, first trial” value in the test on 9 L brain tumors [3] (90 days) turned out to be 62 mm^3. The “residual tumor volume in two of the surviving treated animals, first trial” value in the test with 9 L brain tumors [3] (90 days, small intracerebral cysts) is listed as less than 0.2 mm^3. In the test with 9 L brain tumors [3] (both groups receiving 1× producer cells), the “survival, GCV for 7 versus 14 days” value is reported as “no difference”. The “survival, 1× versus 10× producer cells” value with 9 L brain tumors [3] (both groups receiving GCV for 14 days) is “No difference in survival”. Also, the “treated animals surviving 90 days” value in the test with 9 L brain tumors [3] was 22%; with 9 L brain tumors [3] (controls 0/8), 7 of 32 and 7/32. Besides, in the test with 9 L brain tumors [3] (combined treated groups, Kaplan-Meier, P<0.002), the “survival of treated versus control animals” value was “highly significant difference; also recorded: significant improvement in survival”.
For the compound `Nc1nc2c(ncn2COCCO)c(=O)[nH]1` [acyclovir, 9-((2-hydroxyethoxy)methyl)guanine], the “sensitivity of glial cells to acyclovir (survival, FIG. 2)” value in test [4] was “sensitive”. The IC50 is 0.5 µg/mL (≈ 2.22 µM) in the test on cells carrying HSV-TK and greater than 10 µg/mL in test [5].
